# Source: article PMC7331992, “Targeting the oral plaque microbiome with immobilized anti-biofilm peptides at tooth-restoration interfaces” (PLoS ONE, 2020)
# Square brackets hold non-standard residues; d marks the D form. Ends that are not written are not given here. Peptide text beside a SMILES is read from it.
# Columns and labels:
# #311 plaque sample = details: cultures of highly adherent #311 plaque sample; several batches; n = 3; Fig 2C; cited from earlier work
# Procedure: MICs of D-GL13K against cultures of all 10 plaque biofilm samples were in the range 1–4 μg/ml (Fig 2A). […] Potency of the rest of AAMPs candidates was tested against cultures of the highly adherent #311 sample. […] The controls, scrambled amino acid versions of D- ...
# #311 plaque biofilm [1] = assay: Live/dead viability assay of plaque biofilms on peptide-coated HA discs; assay type: cell-based, plaque bacteria (human subject)
# Procedure: Hydroxyapatite (HA) discs (9.65 mm diameter by 1.52 mm thickness; Clarkson Chromatography Products, Williamsport, PA, USA) were sterilized by autoclaving to be used as plaque biofilm substrates. Both sides of each disc were etched by 32% phosphoric acid gel (Scotchbond™ Universal Etchant, 3M, St. Paul, MN, USA) for 15 s followed by 10 s water-rinse and 10 s air-dry. The discs were coated, incubated with a thin layer of peptide solution at 37 °C for 1 min, by 1 mg/ml of either D-GL13K or 1018 or DJK2 followed by 60 s air-dry. The control discs were etched, but were not coated with peptides. All samples were subject to ultrasonication in water bath for 15 min to remove any unattached peptides. X-ray Photoelectron Spectroscopy (XPS; SSX-100, Surface Science Laboratories; Al Kα X-ray, 1 mm spot-size, 35° take-off angle) was used to detect the atomic composition of the coated surfaces. […]
# Working solution of fluorescent stains (L7012, LIVE/DEAD BacLight Bacterial Viability Kit, ThermoFisher Scientific, Waltham, MA, USA) was prepared by adding 3 μl of SYTO® 9 (live cell stain) and 3 μl of Propidium iodide (PI, dead cell stain) to 1 ml of sterilized Milli-Q® ultrapure water. […] The regrown biofilms were re-assessed using the same Live/Dead assay.
# [2] = tested on: supragingival dental plaque samples from 10 high caries risk subjects; assay type: cell-based, plaque bacteria (human subjects); details: 24 h
# Description: After a written informed consent was obtained from all participants, supragingival dental plaque samples from 10 high caries risk subjects were collected from either the occlusal or buccal margin of existing restorations at the University of Minnesota (Institutional Review Board #1403M48865). Each subject was examined for a formal caries risk assessment (CAMBRA) which classifies the caries risk status into 3 categories (low, moderate, high) considering a wide-range of biological predisposing factors and the protective factors, 8 factors each, in addition to the comprehensive clinical examination. All subjects had experienced active carious lesions and were still at high risk for future caries; otherwise, they were in good general health and had not taken antibiotics within 3 months of plaque sampling.
# All dental plaque samples were collected using a sterile sickle scaler, and each sample was immediately deposited into a vial containing 1 ml pre-reduced anaerobic transfer medium (Anaerobe Systems, Morgan Hill, CA, USA). […] After 24 h of peptide treatment, absorbance at 600 nm was measured using a microtiter plate reader (Bio-Tek Instruments, Winooski, VT, USA). Plaque sample #311 was challenging in the planktonic state and, additionally, it formed the highest adherent biofilm using the Crystal Violet assay as measured by Dr. Robert S. Jones lab (data not shown). […]
# [3] = tested on: plaque biofilm microbial community; assay: 16S rRNA gene sequencing of plaque biofilm community on AAMPs-coated HA discs; assay type: cell-based, plaque bacteria (human subject)
# Procedure: PMA treatment was conducted for selective detection of viable bacteria. Prior to DNA extraction, the collected 1ml of bacterial cells was sub-divided into 0.5ml with PMA and the other 0.5ml without PMA treatment for each sample for fulfilling a pairs-matched statistical design (S1 Fig in S1 File). PMA was added to the assigned samples for a final concentration of 50 μM. The samples were incubated in the dark for 10 minutes on a shaker at room temperature. The samples were exposed to a PMA-Lite LED photolysis device light (Biotium, Fremont, CA, USA) to cross-link PMA to DNA for 15 minutes. Cells were pelleted by centrifuging at 5000x g for 10 minutes in preparation for genomic DNA extraction.
# Genomic DNA was extracted from all samples; i.e., PMA and non-PMA treated bacteria. The protocol amended from Epicentre MasterPure™ DNA Purification Kit and Epicentre MasterPure™ Gram Positive DNA Purification Kit was followed (http://homings.forsyth.org/DNA%20Isolation%20Protocol.pdf, last access 03/31/2020).
# The extracted DNA was submitted to the University of Minnesota Genomics Center for dual-indexed 16S rRNA gene amplicon sequencing using the V3-V4 region on the Illumina MiSeq platform 300PE.
# Primers where removed with FilterandTrim, paired reads were merged with mergePairs, Bimeras where removed in with removeBimeraDenovo, and Silva version 132 was used for taxonomy identification. Sequences with a length < 251 and > 255 were removed as well as sequences with a total read count across all samples equal to 1. Further analysis of the ASV table was performed in R with the vegan, reshape2, ggplot2, grid, gridExtra, plyr, dplyr packages. The alpha diversity indices of Shannon, Simpson, Inverse Simpson (InvSympson) were calculated at 97% identity. Beta diversity analysis was performed by principal coordinates analysis (PCoA) based on Bray-Curtis distances at the Operational Taxonomic Unit (OTU) level. […]
# #311 plaque biofilm [4] = details: Fig 2B, cited from earlier work
# Procedure: MICs of D-GL13K against cultures of all 10 plaque biofilm samples were in the range 1–4 μg/ml (Fig 2A). […] Potency of the rest of AAMPs candidates was tested against cultures of the highly adherent #311 sample. […] However, biofilms show increased resistance to antimicrobial agents than suspension cultures.
# [5] = tested on: plaque biofilm along dentin-composite interface; assay: Multiphoton live/dead bioimaging of plaque biofilm along dentin-composite interfacial gap; assay type: cell-based, plaque bacteria (human subject); bovine dentin; details: D-GL13K-coated dentin
# Description: Roots of bovine teeth were used to prepare restored dentin-composite discs (Fig 1). After the crowns and apical thirds of each tooth were cut off, the root canals were enlarged to 2 mm in diameter, using 1.9-mm diameter fiber post drills (RelyX™ Fiber Post, 3M, St. Paul, MN, USA). The outer surface of the roots was trimmed down to 5 mm in diameter using a lathe to remove cementum and external layers of dentin. The obtained dentin tubes (5 mm in outer diameter and 2 mm in inner diameter) were water rinsed and stored in 0.5 chloramine T solution at 4 °C until the restorative procedures were performed. […]
# Multiphoton images were acquired in a Multiphoton upright microscope equipped with an A1R laser scan head (Nikon FN1, Tokyo, Japan). […] Multiphoton excitation fluorescence was collected in the epi direction in the green (470–550) and orange-red (570–640) channels. […] Images were compiled and analyzed with NIS Elements software (Version 4.11.0, Nikon, Tokyo, Japan).
# Quantification of red and green cells was done by standard co-localization analysis using Fiji image processing package. The percentage of red cells, which is usually associated to dead cells was calculated as: deadcells%=(totalvolumeofredcells/totalvolumeofcells)x100
Molecule,MIC (#311 plaque sample) [µg/mL],"live/dead assay, effect on bacteria (#311 plaque biofilm [1]; D-GL13K-coated HA discs, 48 h biofilm growth)","antibiofilm activity of challenged coatings (#311 plaque biofilm [1]; coating challenged by 45 min ultrasonication or 45 min 30% acetic acid (pH 2.4), biofilms regrown 5 and 15 days)",MIC [2] [µg/mL],"bacterial community richness (Shannon index) compared to controls ([3]; 48-h biofilm on coated HA discs, genus level)","abundance of less abundant taxa Actinomyces and Gemella compared to controls ([3]; ANCOM, coated HA discs)","number and relative abundance of Streptococcus and Veillonella combined versus controls ([3]; Shannon, Simpson, InvSimpson indices, coated HA discs)","inhibition of #311 plaque biofilm (#311 plaque biofilm [4]; 25 μg/ml D-GL13K, 6-day-old biofilm)",suppression of biofilm biovolume compared to controls (#311 plaque biofilm [4]; highly adherent plaque biofilm) [%],"antibiofilm potency on 18-day-old interfacial plaque biofilm ([5]; 18-day-old biofilm, 3D rendering)","Percentage of dead cells ([5]; interfacial 9-day-old biofilm, average ± SD, n=6, control 31.5%± 8%, p = 0.018)"
CC[C@@H](C)[C@@H](NC(=O)[C@@H](CCCCN)NC(=O)CN)C(=O)N[C@@H](C(=O)N[C@H](CCCCN)C(=O)N[C@H](CC(C)C)C(=O)N[C@H](CCCCN)C(=O)N[C@H](C)C(=O)N[C@H](CO)C(=O)N[C@H](CC(C)C)C(=O)N[C@H](CCCCN)C(=O)N[C@H](CC(C)C)C(=O)N[C@H](CC(C)C)C(N)=O)[C@H](C)CC [D-GL13K] (H-G[dK][dI][dI][dK][dL][dK][dA][dS][dL][dK][dL][dL]-NH2; N-terminus and C-terminus assumed),1 to 2,uniform and marked loss of the integrity of bacterial membranes,sustained antibiofilm activity,1 to 4,significantly reduced,significant reduction,significant reduction,around 4 fold,> 70,maintained their antibiofilm potency,60% ± 10%
"L-GL13K: antimicrobial amphipathic peptide GL13K, L-amino acids (GKIIKLKASLKLL; not fully specified (C-terminus))",8,–,–,–,–,–,–,–,–,–,–
